From publication PMC4607367, “Gedunin and Azadiradione: Human Pancreatic Alpha-Amylase Inhibiting Limonoids from Neem (Azadirachta indica) as Anti-Diabetic Agents” (PLoS ONE, 2015)
Entries after “also recorded” stand apart in the source; their conditions may differ.

What was measured:
[1] = biological target: T1, Human pancreatic α-amylase (HPA) (Homo sapiens, UniProt P04746); assay: Ligand binding to HPA by fluorescence quenching titration, thermodynamic parameters
T1 construct: purchased Sigma Aldrich, USA
T1 sequence (P04746 16-511): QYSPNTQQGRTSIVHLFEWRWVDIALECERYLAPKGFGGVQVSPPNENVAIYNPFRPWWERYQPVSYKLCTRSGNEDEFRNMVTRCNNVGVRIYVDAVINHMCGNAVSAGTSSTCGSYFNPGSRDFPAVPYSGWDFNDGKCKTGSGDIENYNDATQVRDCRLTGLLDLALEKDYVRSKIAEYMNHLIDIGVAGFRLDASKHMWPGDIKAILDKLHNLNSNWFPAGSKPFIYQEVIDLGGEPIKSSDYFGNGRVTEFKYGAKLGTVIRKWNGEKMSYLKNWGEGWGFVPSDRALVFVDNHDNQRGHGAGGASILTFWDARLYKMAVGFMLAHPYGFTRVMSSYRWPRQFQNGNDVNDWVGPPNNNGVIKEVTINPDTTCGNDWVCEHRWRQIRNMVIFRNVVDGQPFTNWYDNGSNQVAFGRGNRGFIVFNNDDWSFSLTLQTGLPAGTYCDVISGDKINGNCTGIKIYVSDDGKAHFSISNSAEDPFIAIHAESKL
Procedure: Ligand binding studies using fluorescence measurements of HPA were carried as described in our earlier report. […] Non-linear and linear regression analyses were used to analyze the data.
The thermodynamic parameters, association constants (K a), dissociation constant (K d) and Gibbs free energy (ΔG°) of binding for azadiradione and gedunin were determined at various temperatures 25°C to 60°C by fluorescence quenching studies.

[2] = test system: AR42J rat pancreatic acinar cells; assay: Cytotoxicity in AR42J cell line (MTT); conditions: AR42J
Procedure: (§1) Cells were seeded at 2×10^4 cells well^-1 onto 96 wells culture dish. […] Appropriate medium and DMSO controls were simultaneously set up. […] At the end of 24 h incubation period the culture media was removed from the samples and fresh culture media (100 μl) containing 20 μl of MTT tetrazolium bromide (5 mg ml^-1) added and incubated for 3 h at 37°C. Metabolically active cells reduce MTT to insoluble purple formazan dye crystals, which were dissolved by addition of 300 μl DMSO solution at the end of the incubation period and quantitated at 550 nm [34].

[3] = Cytotoxicity in AR42J cell line (MTT); conditions: rat, AR42J pancreatic acinar cells
Procedure: as §1

[4] = biological target: T2, secreted pancreatic α-amylase of AR42J cells (Rattus norvegicus, UniProt P00689); assay: Bioactivity: inhibition of secreted pancreatic α-amylase in dexamethasone-induced AR42J cells, incl. starch load test (DNSA); type: cell-based; conditions: for Amylase inhibition at the cytotoxic IC50 concentration: 24 h, at 11.1, 13.4 and 4.1 μM respectively
T2 construct: host or cells: AR42J rat pancreatic acinar cells, induced with 10 nM dexamethasone
T2 sequence (P00689 16-508): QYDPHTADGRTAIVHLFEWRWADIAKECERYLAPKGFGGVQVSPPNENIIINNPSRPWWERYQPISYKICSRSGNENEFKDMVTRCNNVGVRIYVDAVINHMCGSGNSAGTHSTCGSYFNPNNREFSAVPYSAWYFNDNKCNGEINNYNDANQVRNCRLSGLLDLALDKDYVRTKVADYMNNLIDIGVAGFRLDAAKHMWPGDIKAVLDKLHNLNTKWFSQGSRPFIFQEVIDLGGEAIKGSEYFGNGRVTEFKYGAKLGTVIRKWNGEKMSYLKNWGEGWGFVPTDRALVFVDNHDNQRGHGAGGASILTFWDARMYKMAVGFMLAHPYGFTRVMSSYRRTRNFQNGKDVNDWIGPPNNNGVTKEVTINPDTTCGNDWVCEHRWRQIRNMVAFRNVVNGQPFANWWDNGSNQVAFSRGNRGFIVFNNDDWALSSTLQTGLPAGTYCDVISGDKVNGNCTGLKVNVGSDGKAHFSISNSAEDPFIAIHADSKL
Text: Appropriate medium and DMSO controls were simultaneously set up.

[5] = biological target: T1, Human pancreatic α-amylase (HPA); assay: HPA inhibition kinetics (Michaelis-Menten, Lineweaver-Burk, secondary plots); type: biochemical
Procedure: The mode of inhibition of HPA by the lead inhibitors azadiradione and gedunin were determined using Michaelis-Menton and Lineweaver-Burk equations. Starch (1–5mg ml^-1) and maltopentaose (0.05–0.4mM) were incubated with inhibitors-HPA for 10 and 2.5 min, respectively and the residual enzyme activity determined by DNSA method for starch and Nelson-Somogyi’s method for maltopentaose.The inhibitor constants(K i) were determined on the basis of mode of inhibition.

[6] = biological target: T1, Human pancreatic α-amylase (HPA); assay: Human pancreatic α-amylase inhibition and stoichiometry (DNSA); type: biochemical
Text: The control HPA (0.25 U) without inhibitors represented 100% enzyme activity.

[7] = biological target: T3, Porcine pancreatic α-amylase (PPA) (Sus scrofa, UniProt P00690); assay: Porcine pancreatic α-amylase inhibition assay, chromogenic DNSA method (primary screening); type: biochemical; conditions: for IC50: starch 1% w/v, pH 6.9, 37°C; for PPA inhibition (result in words): inhibitors 13.8–214.3 μM
T3 construct: purchased SRL, Mumbai, India
T3 sequence (P00690 16-511): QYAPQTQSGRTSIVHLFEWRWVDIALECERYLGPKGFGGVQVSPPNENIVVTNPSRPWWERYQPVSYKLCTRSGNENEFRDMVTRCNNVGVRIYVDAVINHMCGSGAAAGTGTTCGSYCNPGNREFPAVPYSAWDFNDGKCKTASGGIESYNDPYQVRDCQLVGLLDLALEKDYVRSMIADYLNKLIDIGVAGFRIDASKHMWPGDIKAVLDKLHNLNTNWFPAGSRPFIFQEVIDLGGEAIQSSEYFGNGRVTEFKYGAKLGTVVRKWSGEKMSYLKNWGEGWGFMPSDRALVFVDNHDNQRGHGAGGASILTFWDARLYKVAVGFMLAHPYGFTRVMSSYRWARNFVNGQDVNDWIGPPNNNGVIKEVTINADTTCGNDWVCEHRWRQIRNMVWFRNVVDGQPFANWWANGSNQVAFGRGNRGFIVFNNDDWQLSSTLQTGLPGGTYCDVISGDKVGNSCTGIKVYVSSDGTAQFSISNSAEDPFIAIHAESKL
Procedure: The inhibition assay was performed using the chromogenic DNSA method. PPA was used for preliminary screening of α-amylase inhibitors. […] Moreover a high degree gene sequence similarity (~ 90%) exists between human salivary α-amylase (HSA) and PPA as reported by (Buisson et al 1987). Brayer et al (1995) have reported 97% primary sequence similarity between human salivary and human pancreatic α-amylases and a 70% structural similarity between PPA and HPA [11]. Thus, a high degree of similarity between PPA and HPA allows us to use it as the enzyme for screening inhibitors.
In brief, the total assay mixture consisting of 0.02 M sodium phosphate buffer, pH6.9, (containing 6 mM NaCl), 0.2–0.25 U of PPA and inhibitors (13.8–214.3 μM) in DMSO was incubated at 37°C for 10 min. After pre-incubation, the substrate starch (1%, w/v) solution was added to the reaction mixture and further incubated for 15 min. The control PPA (0.21 U) without any inhibitor represented 100% enzyme activity. One unit of enzyme activity is defined as the amount of enzyme required to release one micromole of maltose from starch/maltopentaose per min under the assay conditions. The other quantifiers calculated were: % Relative enzyme activity = (enzyme activity of test/enzyme activity of control)*100. % inhibition = (100 − % relative enzyme activity).
The IC50 values were determined from plots of percent inhibition versus inhibitor concentration and calculated by logarithmic regression analysis. To eliminate the absorbance produced by the compound, appropriate controls were included. The known PPA/HPA inhibitor acarbose was used as a positive control at a concentration range of 10–50 μM.

PPA = test system: PPA; set-up: method as in PMID 22975503; conditions: ref [25],[26], cited from earlier work; for IC50: value in brackets
HPA = biological target: HPA; set-up: method as in PMID 15736945; conditions: ref [60], cited from earlier work
[8] = linear van't Hoff plot, 298–333 K

CC(=O)O[C@@H]1C[C@H]2C(C)(C)C(=O)C=C[C@]2(C)[C@H]2CC[C@@]3(C)[C@H](c4ccoc4)OC(=O)[C@H]4O[C@]43[C@@]21C [gedunin]
-ΔG° ([1]; 298 K): 21.16 k J mol^-1 | K a ([1]; 298 K): 5100 M⁻¹ | Kd ([1]; 298 K): 200 ± 9 µM | -ΔG° ([1]; 303 K): 20.57 k J mol^-1 | K a ([1]; 303 K): 3500 M⁻¹ | Kd ([1]; 303 K): 300 ± 3 µM | -ΔG° ([1]; 308 K): 16.4 k J mol^-1 | K a ([1]; 308 K): 600 M⁻¹ | Kd ([1]; 308 K): 1600 ± 1 µM | -ΔG° ([1]; 313 K): 12.4 k J mol^-1 | K a ([1]; 313 K): 120 M⁻¹ | Kd ([1]; 313 K): 8300 ± 50 µM | -ΔG° ([1]; 323K): 11.8 k J mol^-1 | K a ([1]; 323K): 80 M⁻¹ | Kd ([1]; 323K): 12200 ± 600 µM | -ΔG° ([1]; 333K): 7.4 k J mol^-1 | K a ([1]; 333K): 10 M⁻¹ | Kd ([1]; 333K): 67200 ± 800 µM | Maximal quenching of intrinsic HPA fluorescence ([1]; 350 nm, azadiradione 3.9–118 μM, gedunin 2.0–51.86 μM): 19% | Maximum ΔG° of binding ([1]; calculated from binding constants, maximal affinity at 298 K): -5.057 kcal/mol | Enthalpy (ΔHvH) [1, 8]: -33.44 kcal/mol | Entropy (-ΔS) [1, 8]: 397.84 J mol^-1K^-1 | Cell death ([2]; 3.3 μM): 8.6% | Cell morphology versus controls ([2]; azadiradione 3.5 μM, gedunin 3.3 μM (Fig 3)): no morphological change | IC50 at 24 h [3]: 13.4 µM | Secreted amylase inhibition in starch load test ([4]; AR42J, 0.5% (w/v) starch, up to two hours): 31.7% | Amylase inhibition at the cytotoxic IC50 concentration ([4]; AR42J): 69.2% | inhibition at 3.3 µM ([4]; AR-42J, AR42J, 3.3 μM): 53.4% | Ki ([5]; maltopentaose as substrate, secondary plots): 18.6 µM | Apparent K i ′ ([5]; starch as substrate, secondary plots): 37.4 µM | Mode of HPA inhibition ([5]; substrates starch and maltopentaose, Lineweaver-Burk): mixed | Stoichiometry of HPA inactivation ([6]; percentage inhibition versus molar ratio of HPA and inhibitor, HPA 14.85 μM): 0.68 | IC50 ([6]; starch substrate, sigmoidal fit): 68.4 µM | IC50 [7]: 72.2 µM

C/C=C(\C)C(=O)O[C@H]1C[C@@H](OC(C)=O)[C@@]2(C(=O)OC)CO[C@H]3[C@@H](O)[C@@](C)([C@]45O[C@@]4(C)[C@@H]4C[C@H]5O[C@@H]5OC=C[C@@]54O)[C@H]4[C@]1(CO[C@]4(O)C(=O)OC)[C@@H]32 [azadirachtin A]
PPA inhibition (result in words) [7]: No inhibition; also recorded: no bioactivity

COC(=O)C[C@H]1[C@]2(C)C3=C(C)[C@H](c4ccoc4)C[C@H]3O[C@@H]2[C@H](OC(C)=O)[C@@H]2[C@]1(C)C(=O)C=C[C@@]2(C)C(=O)OC [nimbin]
PPA inhibition (result in words) [7]: No inhibition; also recorded: no bioactivity

CC(=O)O[C@@H]1C[C@H]2C(C)(C)C(=O)C=C[C@]2(C)[C@H]2CC[C@]3(C)C(=CC[C@H]3c3ccoc3)[C@@]21C [azadirone]
PPA inhibition (result in words) [7]: No inhibition; also recorded: no activity was observed

CC(C)=CC(=O)O[C@H]1C[C@@H](O)[C@@]2(C)CO[C@H]3[C@@H](O)[C@@]4(C)C5=CC[C@@H](c6ccoc6)[C@]5(C)CC[C@@H]4[C@]1(C)[C@@H]32 [meliacinolin]
IC50 with PPA (PPA): 46.74 µg/mL | IC50 (PPA): 91.6 µM

CC=C(C)C(=O)OC1CC(O)C23COC(C(=O)OC)C2C(C)(C24OC2(C)C2CC4OC4OC=CC42O)C(O)C2OCC1(C(=O)OC)C23 (centres unmarked) [azadirachtin B]
PPA inhibition (result in words) [7]: No inhibition; also recorded: no bioactivity

CC(=O)O[C@@H]1C[C@H](OC(=O)C=C(C)C)[C@@]2(C)[C@H]3[C@@H](OC[C@]13C)[C@@H](O)[C@@]1(C)C3=CC[C@@H]([C@@H]4COC(=O)C4)[C@]3(C)CC[C@@H]12 [azadirachtolide]
IC50 with PPA (PPA): 55.8 µg/mL | IC50 (PPA): 94.1 µM

C/C=C(/C)C(=O)O[C@H]1C[C@@H](OC(C)=O)[C@@]2(C)CO[C@H]3[C@H]4O[C@@H]5C[C@@H](c6ccoc6)C(C)=C5[C@@]4(C)[C@H](CC(=O)OC)[C@]1(C)[C@@H]32 [salannin]
PPA inhibition (result in words) [7]: No inhibition; also recorded: no bioactivity

CC(=O)O[C@@H]1C[C@H]2C(C)(C)C(=O)C=C[C@]2(C)[C@H]2CC[C@@]3(C)[C@H](c4ccoc4)C(=O)[C@H]4O[C@]43[C@@]21C [epoxyazadiradione]
Cell death ([2]; 1.7 μM): 2.7% | IC50 at 24 h [3]: 4.1 µM | Amylase inhibition at the cytotoxic IC50 concentration ([4]; AR42J): 53.2% | inhibition at 1.7 µM ([4]; AR-42J, read-out: Pancreatic (secreted) α-amylase inhibition): 31.8% | IC50 [7]: 100 µM

C[C@H]1O[C@H](O[C@H]2[C@H](O)[C@@H](O)[C@@H](O[C@H]3[C@H](O)[C@@H](O)C(O)O[C@@H]3CO)O[C@@H]2CO)[C@H](O)[C@@H](O)[C@@H]1N[C@H]1C=C(CO)[C@@H](O)[C@H](O)[C@H]1O (some centres unmarked) [Acarbose, acarbose]
Ki (HPA; 2-chloro-4-nitrophenyl-α-maltotrioside as substrate): 22 µM | Mode of HPA inhibition (HPA): noncompetitive
